# ChEMBL document CHEMBL3885881, “DrugMatrix”
# Species on record: Rattus norvegicus
# Test: DrugMatrix - Regimen: Daily Repeat
# Type: toxicity, organism-based, Sprague-Dawley
# Parameters: regimen Daily Repeat, gender Male, age 6-8 weeks
# Conditions: in vivo, po, route oral GAVAGE, vehicle .5 % CMC; for ABSOLUTE BASOPHIL / ABSOLUTE EOSINOPHIL / ABSOLUTE LYMPHOCYTE / ABSOLUTE MONOCYTE / ABSOLUTE SEGMENTED NEUTROPHIL / BASOPHIL / EOSINOPHIL / ERYTHROCYTE COUNT / HEMATOCRIT / HEMOGLOBIN / LEUKOCYTE COUNT / LYMPHOCYTE / MEAN CORPUSCULAR HEMOGLOBIN / MEAN CORPUSCULAR HEMOGLOBIN CONCENTRATION / MEAN CORPUSCULAR VOLUME / MONOCYTE / NEUTROPHIL / NUCLEATED RED BLOOD CELLS / PLATELET COUNT: tissue Blood; for ALANINE AMINOTRANSFERASE / ALBUMIN / ALKALINE PHOSPHATASE / ASPARTATE AMINOTRANSFERASE / BLOOD UREA NITROGEN / CARBON DIOXIDE / CHLORIDE / CHOLESTEROL / CREATINE PHOSPHOKINASE / CREATININE / GLUCOSE / LACTATE DEHYDROGENASE / LIPASE / PHOSPHORUS / POTASSIUM / SODIUM / TOTAL BILIRUBIN / TOTAL PROTEIN / URIC ACID: tissue Plasma
# [1] = 200 mg/kg, 72 h, dose level Low, time 3 day
# [2] = 200 mg/kg, 120 h, dose level Low, time 5 day
# [3] = 1300 mg/kg, 72 h, dose level High, time 3 day
# [4] = 1300 mg/kg, 120 h, dose level High, time 5 day
smiles,measurement,setting,value
NC(=O)c1ccccc1O [SALICYLAMIDE],ABSOLUTE BASOPHIL,[1],0 CELLS/uL
same,ABSOLUTE EOSINOPHIL,[1],126.67 CELLS/uL
same,ABSOLUTE LYMPHOCYTE,[1],13749 CELLS/uL
same,ABSOLUTE MONOCYTE,[1],274.67 CELLS/uL
same,ABSOLUTE SEGMENTED NEUTROPHIL,[1],2049.67 CELLS/uL
same,BASOPHIL,[1],0%
same,EOSINOPHIL,[1],0.67%
same,ERYTHROCYTE COUNT,[1],5.79 x10E6/uL
same,HEMATOCRIT,[1],37.07%
same,HEMOGLOBIN,[1],13.9 G/DL
same,LEUKOCYTE COUNT,[1],16.2 x10E3/uL
same,LYMPHOCYTE,[1],85%
same,MEAN CORPUSCULAR HEMOGLOBIN,[1],24.03 pg
same,MEAN CORPUSCULAR HEMOGLOBIN CONCENTRATION,[1],37.5 G/DL
same,MEAN CORPUSCULAR VOLUME,[1],64.07 fL
same,MONOCYTE,[1],1.67%
same,NEUTROPHIL,[1],12.67%
same,NUCLEATED RED BLOOD CELLS,[1],0 /100WBC
same,PLATELET COUNT,[1],1342.33 x10E3/uL
same,ALANINE AMINOTRANSFERASE,[1],47 u/L
same,ALBUMIN,[1],4.23 G/DL
same,ALKALINE PHOSPHATASE,[1],337 u/L
same,ASPARTATE AMINOTRANSFERASE,[1],92 u/L
same,BLOOD UREA NITROGEN,[1],14.67 mg/dL
same,CARBON DIOXIDE,[1],28.67 mmol/L
same,CHLORIDE,[1],102.33 MEQ/L
same,CHOLESTEROL,[1],91.33 mg/dL
same,CREATINE PHOSPHOKINASE,[1],270 u/L
same,CREATININE,[1],0.24 mg/dL
same,GLUCOSE,[1],149.67 mg/dL
same,LACTATE DEHYDROGENASE,[1],413.33 u/L
same,LIPASE,[1],9.67 u/L
same,PHOSPHORUS,[1],12.53 mg/dL
same,POTASSIUM,[1],7.01 MEQ/L
same,SODIUM,[1],146.23 MEQ/L
same,TOTAL BILIRUBIN,[1],0.2 mg/dL
same,TOTAL PROTEIN,[1],5.93 G/DL
same,URIC ACID,[1],1.77 mg/dL
same,ABSOLUTE BASOPHIL,[2],0 CELLS/uL
same,ABSOLUTE EOSINOPHIL,[2],0 CELLS/uL
same,ABSOLUTE LYMPHOCYTE,[2],13314 CELLS/uL
same,ABSOLUTE MONOCYTE,[2],96.33 CELLS/uL
same,ABSOLUTE SEGMENTED NEUTROPHIL,[2],1389.67 CELLS/uL
same,BASOPHIL,[2],0%
same,EOSINOPHIL,[2],0%
same,ERYTHROCYTE COUNT,[2],5.67 x10E6/uL
same,HEMATOCRIT,[2],34.73%
same,HEMOGLOBIN,[2],13.53 G/DL
same,LEUKOCYTE COUNT,[2],14.8 x10E3/uL
same,LYMPHOCYTE,[2],90%
same,MEAN CORPUSCULAR HEMOGLOBIN,[2],24 pg
same,MEAN CORPUSCULAR HEMOGLOBIN CONCENTRATION,[2],39 G/DL
same,MEAN CORPUSCULAR VOLUME,[2],61.53 fL
same,MONOCYTE,[2],0.67%
same,NEUTROPHIL,[2],9.33%
same,NUCLEATED RED BLOOD CELLS,[2],0 /100WBC
same,PLATELET COUNT,[2],1300.67 x10E3/uL
same,ALANINE AMINOTRANSFERASE,[2],41.67 u/L
same,ALBUMIN,[2],4.13 G/DL
same,ALKALINE PHOSPHATASE,[2],340 u/L
same,ASPARTATE AMINOTRANSFERASE,[2],77.67 u/L
same,BLOOD UREA NITROGEN,[2],15.33 mg/dL
same,CARBON DIOXIDE,[2],27 mmol/L
same,CHLORIDE,[2],104 MEQ/L
same,CHOLESTEROL,[2],78.33 mg/dL
same,CREATINE PHOSPHOKINASE,[2],235.33 u/L
same,CREATININE,[2],0.22 mg/dL
same,GLUCOSE,[2],151 mg/dL
same,LACTATE DEHYDROGENASE,[2],176 u/L
same,LIPASE,[2],9.33 u/L
same,PHOSPHORUS,[2],12.43 mg/dL
same,POTASSIUM,[2],6.83 MEQ/L
same,SODIUM,[2],145.3 MEQ/L
same,TOTAL BILIRUBIN,[2],0.13 mg/dL
same,TOTAL PROTEIN,[2],5.83 G/DL
same,URIC ACID,[2],1.57 mg/dL
same,ABSOLUTE BASOPHIL,[3],0 CELLS/uL
same,ABSOLUTE EOSINOPHIL,[3],0 CELLS/uL
same,ABSOLUTE LYMPHOCYTE,[3],15293.5 CELLS/uL
same,ABSOLUTE MONOCYTE,[3],351 CELLS/uL
same,ABSOLUTE SEGMENTED NEUTROPHIL,[3],1905.5 CELLS/uL
same,BASOPHIL,[3],0%
same,EOSINOPHIL,[3],0%
same,ERYTHROCYTE COUNT,[3],6 x10E6/uL
same,HEMATOCRIT,[3],36.9%
same,HEMOGLOBIN,[3],14.4 G/DL
same,LEUKOCYTE COUNT,[3],17.55 x10E3/uL
same,LYMPHOCYTE,[3],87%
same,MEAN CORPUSCULAR HEMOGLOBIN,[3],24 pg
same,MEAN CORPUSCULAR HEMOGLOBIN CONCENTRATION,[3],39 G/DL
same,MEAN CORPUSCULAR VOLUME,[3],61.55 fL
same,MONOCYTE,[3],2%
same,NEUTROPHIL,[3],11%
same,NUCLEATED RED BLOOD CELLS,[3],0 /100WBC
same,PLATELET COUNT,[3],1429 x10E3/uL
same,ALANINE AMINOTRANSFERASE,[3],90 u/L
same,ALBUMIN,[3],4.2 G/DL
same,ALKALINE PHOSPHATASE,[3],469 u/L
same,ASPARTATE AMINOTRANSFERASE,[3],83 u/L
same,BLOOD UREA NITROGEN,[3],14 mg/dL
same,CARBON DIOXIDE,[3],30.5 mmol/L
same,CHLORIDE,[3],101 MEQ/L
same,CHOLESTEROL,[3],71.5 mg/dL
same,CREATINE PHOSPHOKINASE,[3],167.5 u/L
same,CREATININE,[3],0.12 mg/dL
same,GLUCOSE,[3],146.5 mg/dL
same,LACTATE DEHYDROGENASE,[3],166 u/L
same,LIPASE,[3],9.5 u/L
same,PHOSPHORUS,[3],12.5 mg/dL
same,POTASSIUM,[3],6.86 MEQ/L
same,SODIUM,[3],145.55 MEQ/L
same,TOTAL BILIRUBIN,[3],0.2 mg/dL
same,TOTAL PROTEIN,[3],5.75 G/DL
same,URIC ACID,[3],1.65 mg/dL
same,ABSOLUTE BASOPHIL,[4],0 CELLS/uL
same,ABSOLUTE EOSINOPHIL,[4],33.67 CELLS/uL
same,ABSOLUTE LYMPHOCYTE,[4],13088.67 CELLS/uL
same,ABSOLUTE MONOCYTE,[4],0 CELLS/uL
same,ABSOLUTE SEGMENTED NEUTROPHIL,[4],1544.33 CELLS/uL
same,BASOPHIL,[4],0%
same,EOSINOPHIL,[4],0.33%
same,ERYTHROCYTE COUNT,[4],5.56 x10E6/uL
same,HEMATOCRIT,[4],35.47%
same,HEMOGLOBIN,[4],14.03 G/DL
same,LEUKOCYTE COUNT,[4],14.67 x10E3/uL
same,LYMPHOCYTE,[4],88.67%
same,MEAN CORPUSCULAR HEMOGLOBIN,[4],25.27 pg
same,MEAN CORPUSCULAR HEMOGLOBIN CONCENTRATION,[4],39.6 G/DL
same,MEAN CORPUSCULAR VOLUME,[4],63.83 fL
same,MONOCYTE,[4],0%
same,NEUTROPHIL,[4],11%
same,NUCLEATED RED BLOOD CELLS,[4],0.33 /100WBC
same,PLATELET COUNT,[4],1393 x10E3/uL
same,ALANINE AMINOTRANSFERASE,[4],71 u/L
same,ALBUMIN,[4],4.07 G/DL
same,ALKALINE PHOSPHATASE,[4],356.67 u/L
same,ASPARTATE AMINOTRANSFERASE,[4],83.33 u/L
same,BLOOD UREA NITROGEN,[4],16 mg/dL
same,CARBON DIOXIDE,[4],23 mmol/L
same,CHLORIDE,[4],106.33 MEQ/L
same,CHOLESTEROL,[4],70.33 mg/dL
same,CREATINE PHOSPHOKINASE,[4],456 u/L
same,CREATININE,[4],0.21 mg/dL
same,GLUCOSE,[4],189.33 mg/dL
same,LACTATE DEHYDROGENASE,[4],144.67 u/L
same,LIPASE,[4],10 u/L
same,PHOSPHORUS,[4],12.87 mg/dL
same,POTASSIUM,[4],5.46 MEQ/L
same,SODIUM,[4],149.13 MEQ/L
same,TOTAL BILIRUBIN,[4],0.27 mg/dL
same,TOTAL PROTEIN,[4],5.83 G/DL
same,URIC ACID,[4],1.7 mg/dL
